Reference: ChEMBL document CHEMBL1671627, “Increasing trends in antimicrobial resistance among clinically important anaerobes and Bacteroides fragilis isolates causing nosocomial infections: emerging resistance to carbapenems” (2008)
In brackets after ≈: the same amount, converted by molar mass.

Assays:
Bacteroides fragilis [1] = assay: Antibacterial activity against Bacteroides fragilis assessed as susceptible isolates by CLSI agar dilution method; assay type: functional
Bacteroides fragilis [2] = assay: Antibacterial activity against Bacteroides fragilis assessed as resistant isolates by CLSI agar dilution method; assay type: functional
[3] = test system: Bacteroides thetaiotaomicron; assay: Antibacterial activity against beta-lactamase producing Bacteroides thetaiotaomicron assessed as susceptible isolates by CLSI agar dilution method; assay type: functional
[4] = test system: Bacteroides thetaiotaomicron; assay: Antibacterial activity against beta-lactamase producing Bacteroides thetaiotaomicron assessed as resistant isolates by CLSI agar dilution method; assay type: functional
Phocaeicola vulgatus [5] = assay: Antibacterial activity against beta-lactamase producing Bacteroides vulgatus by CLSI agar dilution method; assay type: functional
Phocaeicola vulgatus [6] = assay: Antibacterial activity against beta-lactamase producing Bacteroides vulgatus assessed as susceptible isolates by CLSI agar dilution method; assay type: functional
Phocaeicola vulgatus [7] = assay: Antibacterial activity against beta-lactamase producing Bacteroides vulgatus assessed as resistant isolates by CLSI agar dilution method; assay type: functional
Bacteroides uniformis [8] = assay: Antibacterial activity against beta-lactamase producing Bacteroides uniformis by CLSI agar dilution method; assay type: functional
Bacteroides uniformis [9] = assay: Antibacterial activity against beta-lactamase producing Bacteroides uniformis assessed as susceptible isolates by CLSI agar dilution method; assay type: functional
Bacteroides uniformis [10] = assay: Antibacterial activity against beta-lactamase producing Bacteroides uniformis assessed as resistant isolates by CLSI agar dilution method; assay type: functional
Bacteroides caccae [11] = assay: Antibacterial activity against beta-lactamase producing Bacteroides caccae by CLSI agar dilution method; assay type: functional
Bacteroides caccae [12] = assay: Antibacterial activity against beta-lactamase producing Bacteroides caccae assessed as susceptible isolates by CLSI agar dilution method; assay type: functional
Bacteroides caccae [13] = assay: Antibacterial activity against beta-lactamase producing Bacteroides caccae assessed as resistant isolates by CLSI agar dilution method; assay type: functional
Fusobacterium varium [14] = assay: Antibacterial activity against Fusobacterium varium by CLSI agar dilution method; assay type: functional
Fusobacterium nucleatum [15] = assay: Antibacterial activity against Fusobacterium nucleatum by CLSI agar dilution method; assay type: functional
Fusobacterium mortiferum [16] = assay: Antibacterial activity against Fusobacterium mortiferum by CLSI agar dilution method; assay type: functional
[17] = test system: Fusobacterium necrophorum; assay: Antibacterial activity against Fusobacterium necrophorum by CLSI agar dilution method; assay type: functional
Fusobacterium varium [18] = assay: Antibacterial activity against Fusobacterium varium assessed as susceptible isolates by CLSI agar dilution method; assay type: functional
Fusobacterium nucleatum [19] = assay: Antibacterial activity against Fusobacterium nucleatum assessed as susceptible isolates by CLSI agar dilution method; assay type: functional
Fusobacterium mortiferum [20] = assay: Antibacterial activity against Fusobacterium mortiferum assessed as susceptible isolates by CLSI agar dilution method; assay type: functional
[21] = test system: Fusobacterium necrophorum; assay: Antibacterial activity against Fusobacterium necrophorum assessed as susceptible isolates by CLSI agar dilution method; assay type: functional
Fusobacterium varium [22] = assay: Antibacterial activity against Fusobacterium varium assessed as resistant isolates by CLSI agar dilution method; assay type: functional
Fusobacterium nucleatum [23] = assay: Antibacterial activity against Fusobacterium nucleatum assessed as resistant isolates by CLSI agar dilution method; assay type: functional
Fusobacterium mortiferum [24] = assay: Antibacterial activity against Fusobacterium mortiferum assessed as resistant isolates by CLSI agar dilution method; assay type: functional
[25] = test system: Fusobacterium necrophorum; assay: Antibacterial activity against Fusobacterium necrophorum assessed as resistant isolates by CLSI agar dilution method; assay type: functional
Prevotella buccae [26] = assay: Antibacterial activity against Prevotella buccae by CLSI agar dilution method; assay type: functional; conditions: Segatella buccae
Prevotella bivia [27] = assay: Antibacterial activity against Prevotella bivia by CLSI agar dilution method; assay type: functional
Prevotella intermedia [28] = assay: Antibacterial activity against Prevotella intermedia by CLSI agar dilution method; assay type: functional
[29] = test system: Prevotella melaninogenica; assay: Antibacterial activity against Prevotella melaninogenica by CLSI agar dilution method; assay type: functional
Prevotella buccae [30] = assay: Antibacterial activity against Prevotella buccae assessed as susceptible isolates by CLSI agar dilution method; assay type: functional, Segatella buccae
Prevotella bivia [31] = assay: Antibacterial activity against Prevotella bivia assessed as susceptible isolates by CLSI agar dilution method; assay type: functional
Prevotella intermedia [32] = assay: Antibacterial activity against Prevotella intermedia assessed as susceptible isolates by CLSI agar dilution method; assay type: functional
[33] = test system: Prevotella melaninogenica; assay: Antibacterial activity against Prevotella melaninogenica assessed as susceptible isolates by CLSI agar dilution method; assay type: functional
Prevotella buccae [34] = assay: Antibacterial activity against Prevotella buccae assessed as resistant isolates by CLSI agar dilution method; assay type: functional, Segatella buccae
Prevotella bivia [35] = assay: Antibacterial activity against Prevotella bivia assessed as resistant isolates by CLSI agar dilution method; assay type: functional
Prevotella intermedia [36] = assay: Antibacterial activity against Prevotella intermedia assessed as resistant isolates by CLSI agar dilution method; assay type: functional
[37] = test system: Prevotella melaninogenica; assay: Antibacterial activity against Prevotella melaninogenica assessed as resistant isolates by CLSI agar dilution method; assay type: functional
Veillonella parvula = assay: Antibacterial activity against Veillonella parvula by CLSI agar dilution method; assay type: functional
Clostridium perfringens = assay: microbe, parasite or virus in culture; assay type: functional
[38] = test system: Clostridium paraputrificum; assay: Antibacterial activity against beta-lactamase producing Clostridium paraputrificum by CLSI agar dilution method; assay type: functional
Clostridium septicum = assay: Antibacterial activity against beta-lactamase producing Clostridium septicum by CLSI agar dilution method; assay type: functional
Clostridium tertium = assay: Antibacterial activity against beta-lactamase producing Clostridium tertium by CLSI agar dilution method; assay type: functional
Bacteroides fragilis [39] = assay: Antibacterial activity against Bacteroides fragilis by CLSI agar dilution method; assay type: functional
[40] = test system: Bacteroides thetaiotaomicron; assay: Antibacterial activity against beta-lactamase producing Bacteroides thetaiotaomicron by CLSI agar dilution method; assay type: functional
[41] = test system: Peptostreptococcus anaerobius; assay: Antibacterial activity against beta-lactamase producing Peptostreptococcus anaerobius by CLSI agar dilution method; assay type: functional
Parvimonas micra = assay: Antibacterial activity against beta-lactamase producing Micromonas micros by CLSI agar dilution method; assay type: functional
[42] = test system: Peptoniphilus asaccharolyticus; assay: Antibacterial activity against beta-lactamase producing Peptoniphilus asaccharolyticus by CLSI agar dilution method; assay type: functional
Finegoldia magna = assay: Antibacterial activity against beta-lactamase producing Finegoldia magna by CLSI agar dilution method; assay type: functional

`CC1(C)S[C@@H]2[C@H](NC(=O)Cc3ccccc3)C(=O)N2[C@H]1C(=O)O` [PENICILLIN G] showed an Activity (Bacteroides fragilis [1]) of 0%, an Activity (Bacteroides fragilis [2]) of 100% and an Activity [3] of 0%. The Activity [4] was 100%, the MIC50 (Phocaeicola vulgatus [5]) was over 128 µg/mL and the MIC90 (Phocaeicola vulgatus [5]) was over 128 µg/mL. It also gave an Activity (Phocaeicola vulgatus [6]) of 0%, an Activity (Phocaeicola vulgatus [7]) of 100% and an MIC50 (Bacteroides uniformis [8]) of over 128 µg/mL. For the same molecule, the MIC90 (Bacteroides uniformis [8]) was over 128 µg/mL, the Activity (Bacteroides uniformis [9]) was 0% and the Activity (Bacteroides uniformis [10]) was 100%. For the same molecule, the MIC50 (Bacteroides caccae [11]) was over 128 µg/mL, the MIC90 (Bacteroides caccae [11]) was over 128 µg/mL and the Activity (Bacteroides caccae [12]) was 0%. The Activity (Bacteroides caccae [13]) was 100%, the MIC50 (Fusobacterium varium [14]) was 0.25 µg/mL (≈ 0.748 µM) and the MIC90 (Fusobacterium varium [14]) was 1 µg/mL (≈ 2.99 µM). For the same molecule, the MIC50 (Fusobacterium nucleatum [15]) was 0.25 µg/mL (≈ 0.748 µM), the MIC90 (Fusobacterium nucleatum [15]) was 1 µg/mL (≈ 2.99 µM) and the MIC50 (Fusobacterium mortiferum [16]) was 0.25 µg/mL (≈ 0.748 µM). The MIC90 (Fusobacterium mortiferum [16]) was 1 µg/mL (≈ 2.99 µM), the MIC50 [17] was 0.25 µg/mL (≈ 0.748 µM) and the MIC90 [17] was 1 µg/mL (≈ 2.99 µM). It also gave an Activity (Fusobacterium varium [18]) of 85%, an Activity (Fusobacterium nucleatum [19]) of 85% and an Activity (Fusobacterium mortiferum [20]) of 85%. It also gave an Activity [21] of 85%, an Activity (Fusobacterium varium [22]) of 11% and an Activity (Fusobacterium nucleatum [23]) of 11%. It also gave an Activity (Fusobacterium mortiferum [24]) of 11%, an Activity [25] of 11% and an MIC50 (Prevotella buccae [26]) of 16 µg/mL (≈ 47.8 µM). The MIC90 (Prevotella buccae [26]) was 64 µg/mL (≈ 191 µM), the MIC50 (Prevotella bivia [27]) was 16 µg/mL (≈ 47.8 µM) and the MIC90 (Prevotella bivia [27]) was 64 µg/mL (≈ 191 µM). It also gave an MIC50 (Prevotella intermedia [28]) of 16 µg/mL (≈ 47.8 µM), an MIC90 (Prevotella intermedia [28]) of 64 µg/mL (≈ 191 µM) and an MIC50 [29] of 16 µg/mL (≈ 47.8 µM). For the same molecule, the MIC90 [29] was 64 µg/mL (≈ 191 µM), the Activity (Prevotella buccae [30]) was 6% and the Activity (Prevotella bivia [31]) was 6%. The Activity (Prevotella intermedia [32]) was 6%, the Activity [33] was 6% and the Activity (Prevotella buccae [34]) was 95%. It also gave an Activity (Prevotella bivia [35]) of 95%, an Activity (Prevotella intermedia [36]) of 95% and an Activity [37] of 95%. For the same molecule, the MIC (Veillonella parvula) was 0.06 µg/mL (≈ 0.179 µM), the MIC50 (Clostridium perfringens) was 0.25 µg/mL (≈ 0.748 µM) and the MIC90 (Clostridium perfringens) was 4 µg/mL (≈ 12 µM). The MIC50 [38] was 0.25 µg/mL (≈ 0.748 µM), the MIC90 [38] was 4 µg/mL (≈ 12 µM) and the MIC50 (Clostridium septicum) was 0.25 µg/mL (≈ 0.748 µM). The MIC90 (Clostridium septicum) was 4 µg/mL (≈ 12 µM), the MIC50 (Clostridium tertium) was 0.25 µg/mL (≈ 0.748 µM) and the MIC90 (Clostridium tertium) was 4 µg/mL (≈ 12 µM). For the same molecule, the MIC50 (Bacteroides fragilis [39]) was 16 µg/mL (≈ 47.8 µM), the MIC90 (Bacteroides fragilis [39]) was over 128 µg/mL and the MIC50 [40] was 16 µg/mL (≈ 47.8 µM). For the same molecule, the MIC90 [40] was over 128 µg/mL, the MIC [41] was 0.03 µg/mL (≈ 0.0897 µM) and the MIC50 [41] was 0.03 µg/mL (≈ 0.0897 µM). The MIC90 [41] was 1 µg/mL (≈ 2.99 µM), the MIC (Parvimonas micra) was 0.03 µg/mL (≈ 0.0897 µM) and the MIC50 (Parvimonas micra) was 0.03 µg/mL (≈ 0.0897 µM). For the same molecule, the MIC90 (Parvimonas micra) was 1 µg/mL (≈ 2.99 µM), the MIC [42] was 0.03 µg/mL (≈ 0.0897 µM) and the MIC50 [42] was 0.03 µg/mL (≈ 0.0897 µM). It also gave an MIC90 [42] of 1 µg/mL (≈ 2.99 µM), an MIC (Finegoldia magna) of 0.03 µg/mL (≈ 0.0897 µM) and an MIC50 (Finegoldia magna) of 0.03 µg/mL (≈ 0.0897 µM). The MIC90 (Finegoldia magna) was 1 µg/mL (≈ 2.99 µM).

`C[C@H]1COc2c(N3CCN(C)CC3)c(F)cc3c(=O)c(C(=O)O)cn1c23.C[C@H]1COc2c(N3CCN(C)CC3)c(F)cc3c(=O)c(C(=O)O)cn1c23.O` [LEVOFLOXACIN] gave an MIC50 (Phocaeicola vulgatus [5]) of 2 µg/mL, an MIC90 (Phocaeicola vulgatus [5]) of 8 µg/mL and an MIC50 (Bacteroides uniformis [8]) of 2 µg/mL. The MIC90 (Bacteroides uniformis [8]) was 8 µg/mL, the MIC50 (Bacteroides caccae [11]) was 2 µg/mL and the MIC90 (Bacteroides caccae [11]) was 8 µg/mL. For the same molecule, the MIC50 (Fusobacterium varium [14]) was 2 µg/mL, the MIC90 (Fusobacterium varium [14]) was 4 µg/mL and the MIC50 (Fusobacterium nucleatum [15]) was 2 µg/mL. For the same molecule, the MIC90 (Fusobacterium nucleatum [15]) was 4 µg/mL, the MIC50 (Fusobacterium mortiferum [16]) was 2 µg/mL and the MIC90 (Fusobacterium mortiferum [16]) was 4 µg/mL. It also gave an MIC50 [17] of 2 µg/mL, an MIC90 [17] of 4 µg/mL and an MIC50 (Prevotella buccae [26]) of 1 µg/mL. The MIC90 (Prevotella buccae [26]) was 16 µg/mL, the MIC50 (Prevotella bivia [27]) was 1 µg/mL and the MIC90 (Prevotella bivia [27]) was 16 µg/mL. It also gave an MIC50 (Prevotella intermedia [28]) of 1 µg/mL, an MIC90 (Prevotella intermedia [28]) of 16 µg/mL and an MIC50 [29] of 1 µg/mL. The MIC90 [29] was 16 µg/mL, the MIC (Veillonella parvula) was 0.06 µg/mL and the MIC90 (Clostridium perfringens) was 4 µg/mL. For the same molecule, the MIC50 [38] was 0.5 µg/mL, the MIC90 [38] was 4 µg/mL and the MIC50 (Clostridium septicum) was 0.5 µg/mL. The MIC90 (Clostridium septicum) was 4 µg/mL, the MIC50 (Clostridium tertium) was 0.5 µg/mL and the MIC90 (Clostridium tertium) was 4 µg/mL. For the same molecule, the MIC50 (Bacteroides fragilis [39]) was 2 µg/mL, the MIC90 (Bacteroides fragilis [39]) was 8 µg/mL and the MIC50 [40] was 4 µg/mL. It also gave an MIC90 [40] of 8 µg/mL, an MIC50 [41] of 0.5 µg/mL and an MIC90 [41] of 32 µg/mL. For the same molecule, the MIC50 (Parvimonas micra) was 0.5 µg/mL, the MIC90 (Parvimonas micra) was 32 µg/mL and the MIC50 [42] was 0.5 µg/mL. It also gave an MIC90 [42] of 32 µg/mL, an MIC50 (Finegoldia magna) of 0.5 µg/mL and an MIC90 (Finegoldia magna) of 32 µg/mL.
